Laboratory results: publication PMC9520775, “Everolimus pharmacokinetics and exposure-response relationship in Japanese patients with advanced breast cancer” (Frontiers in Pharmacology, 2022)

System: patients with advanced or metastatic breast cancer
Assay: Adverse events (CTCAE Ver. 4.0), dose-limiting toxicities and dose reductions under everolimus
Type: in vivo, human
Source text: This was a prospective, observational PK study. Patients with advanced or metastatic breast cancer who received everolimus between November 2015 and November 2018 at Kobe City Medical Center General Hospital were enrolled in this study. The main inclusion criteria included the following: age ≥20 years; Eastern Cooperative Oncology Group (ECOG) performance status (PS): 0 or 1; and adequate bone marrow, liver, and renal function. The main exclusion criteria were interstitial pneumonia or pulmonary fibrosis, HBsAg positive, and psychiatric or psychological symptoms that made it difficult to participate in the study. Every participant provided written informed consent. This study was conducted in accordance with the Declaration of Helsinki and approved by the Institutional Review Board, under Approval Number zn151103.
Based on the physician’s decision, the patients were prescribed a starting dose of either 5 or 10 mg everolimus once daily. The everolimus dose was reduced when a patient experienced adverse events higher than grade 2. The first reduced dose was 5 mg once daily, followed by the second reduced dose of 2.5 mg once daily or 5 mg every alternate day. In addition, everolimus doses could be increased if adverse events improved to grade 1 or less, or deemed inefficacious. The adverse events were evaluated weekly for the first month and then every 1–4 weeks, according to the Common Terminology Criteria for Adverse Events Ver. 4.0.
Statistical differences in everolimus trough concentrations, doses and body weights between patient cohorts were assessed using the Mann–Whitney test. Progression-free survival (PFS) was assessed using the Kaplan-Meier method and the log-rank test. All statistical analyses were performed using GraphPad Prism version 7.03 (San Diego, CA). p < 0.05 was considered statistically significant.

[1] = Initial dose: 5 mg/day (n = 6), Grade 3
[2] = Initial dose: 5 mg/day (n = 6), Grade 4
[3] = Initial dose: 5 mg/day (n = 6), Grade All
[4] = Initial dose: 10 mg/day (n = 12), Grade 1
[5] = Initial dose: 10 mg/day (n = 12), Grade 2
[6] = Initial dose: 10 mg/day (n = 12), Grade 3
[7] = Initial dose: 10 mg/day (n = 12), Grade 4
[8] = Initial dose: 10 mg/day (n = 12), Grade All

Question: `CO[C@H]1C[C@@H]2CC[C@@H](C)[C@@](O)(O2)C(=O)C(=O)N2CCCC[C@H]2C(=O)O[C@H]([C@H](C)C[C@@H]2CC[C@@H](OCCO)[C@H](OC)C2)CC(=O)[C@H](C)/C=C(\C)[C@@H](O)[C@@H](OC)C(=O)[C@H](C)C[C@H](C)/C=C/C=C/C=C/1C` [everolimus] was tested. Which “Adverse event, n: Diarrhea” value [1] did it give?
Answer: 0

Question: What about the “Adverse event, n: Dysgeusia” value [1] of the same molecule?
Answer: 0

Question: What about the “Adverse event, n: Epistaxis” value [1] of the same molecule?
Answer: 0

Question: And the “Adverse event, n: High cholesterol” value [1]?
Answer: 0

Question: And the “Adverse event, n: Hyperglycemia” value [1]?
Answer: 0

Question: What about the “Adverse event, n: Hypertriglyceridemia” value [1] of the same molecule?
Answer: 0

Question: What about the “Adverse event, n: Hypokalemia” value [1] of the same molecule?
Answer: 1

Question: What about the “Adverse event, n: Interstitial lung disease” value [1] of the same molecule?
Answer: 0

Question: And the “Adverse event, n: Malaise” value [1]?
Answer: 0

Question: What about the “Adverse event, n: Mucositis oral” value [1] of the same molecule?
Answer: 0

Question: And the “Adverse event, n: Neutrophil count decreased” value [1]?
Answer: 0

Question: What about the “Adverse event, n: Platelet decrease” value [1] of the same molecule?
Answer: 0

Question: What about the “Adverse event, n: Rash” value [1] of the same molecule?
Answer: 0

Question: And the “Adverse event, n: Diarrhea” value [2]?
Answer: 0

Question: What about the “Adverse event, n: Dysgeusia” value [2] of the same molecule?
Answer: 0

Question: What about the “Adverse event, n: Epistaxis” value [2] of the same molecule?
Answer: 0

Question: What about the “Adverse event, n: High cholesterol” value [2] of the same molecule?
Answer: 0

Question: What about the “Adverse event, n: Hyperglycemia” value [2] of the same molecule?
Answer: 0

Question: And the “Adverse event, n: Hypertriglyceridemia” value [2]?
Answer: 0

Question: And the “Adverse event, n: Hypokalemia” value [2]?
Answer: 0

Question: And the “Adverse event, n: Interstitial lung disease” value [2]?
Answer: 0

Question: And the “Adverse event, n: Malaise” value [2]?
Answer: 0

Question: What about the “Adverse event, n: Mucositis oral” value [2] of the same molecule?
Answer: 0

Question: What about the “Adverse event, n: Neutrophil count decreased” value [2] of the same molecule?
Answer: 0

Question: And the “Adverse event, n: Platelet decrease” value [2]?
Answer: 0

Question: What about the “Adverse event, n: Rash” value [2] of the same molecule?
Answer: 0

Question: What about the “Adverse event, n: Diarrhea” value [3] of the same molecule?
Answer: 1

Question: And the “Adverse event, n: Dysgeusia” value [3]?
Answer: 2

Question: And the “Adverse event, n: Epistaxis” value [3]?
Answer: 2

Question: What about the “Adverse event, n: High cholesterol” value [3] of the same molecule?
Answer: 4

Question: What about the “Adverse event, n: Hyperglycemia” value [3] of the same molecule?
Answer: 2

Question: What about the “Adverse event, n: Hypertriglyceridemia” value [3] of the same molecule?
Answer: 3

Question: And the “Adverse event, n: Hypokalemia” value [3]?
Answer: 3

Question: What about the “Adverse event, n: Interstitial lung disease” value [3] of the same molecule?
Answer: 1

Question: And the “Adverse event, n: Malaise” value [3]?
Answer: 2

Question: And the “Adverse event, n: Mucositis oral” value [3]?
Answer: 6

Question: And the “Adverse event, n: Neutrophil count decreased” value [3]?
Answer: 0

Question: And the “Adverse event, n: Platelet decrease” value [3]?
Answer: 2

Question: What about the “Adverse event, n: Rash” value [3] of the same molecule?
Answer: 4

Question: And the “Adverse event, n: Diarrhea” value [4]?
Answer: 1

Question: And the “Adverse event, n: Dysgeusia” value [4]?
Answer: 3

Question: And the “Adverse event, n: Epistaxis” value [4]?
Answer: 4

Question: What about the “Adverse event, n: High cholesterol” value [4] of the same molecule?
Answer: 5

Question: And the “Adverse event, n: Hyperglycemia” value [4]?
Answer: 2

Question: And the “Adverse event, n: Hypertriglyceridemia” value [4]?
Answer: 6

Question: What about the “Adverse event, n: Hypokalemia” value [4] of the same molecule?
Answer: 4

Question: And the “Adverse event, n: Interstitial lung disease” value [4]?
Answer: 3

Question: What about the “Adverse event, n: Malaise” value [4] of the same molecule?
Answer: 5

Question: And the “Adverse event, n: Mucositis oral” value [4]?
Answer: 5

Question: And the “Adverse event, n: Neutrophil count decreased” value [4]?
Answer: 2

Question: And the “Adverse event, n: Platelet decrease” value [4]?
Answer: 7

Question: And the “Adverse event, n: Rash” value [4]?
Answer: 8

Question: What about the “Adverse event, n: Diarrhea” value [5] of the same molecule?
Answer: 3

Question: And the “Adverse event, n: Dysgeusia” value [5]?
Answer: 0

Question: What about the “Adverse event, n: Epistaxis” value [5] of the same molecule?
Answer: 0

Question: What about the “Adverse event, n: High cholesterol” value [5] of the same molecule?
Answer: 2

Question: What about the “Adverse event, n: Hyperglycemia” value [5] of the same molecule?
Answer: 1

Question: What about the “Adverse event, n: Hypertriglyceridemia” value [5] of the same molecule?
Answer: 3

Question: What about the “Adverse event, n: Hypokalemia” value [5] of the same molecule?
Answer: 1

Question: What about the “Adverse event, n: Interstitial lung disease” value [5] of the same molecule?
Answer: 1

Question: What about the “Adverse event, n: Malaise” value [5] of the same molecule?
Answer: 0

Question: What about the “Adverse event, n: Mucositis oral” value [5] of the same molecule?
Answer: 6

Question: What about the “Adverse event, n: Neutrophil count decreased” value [5] of the same molecule?
Answer: 3

Question: What about the “Adverse event, n: Platelet decrease” value [5] of the same molecule?
Answer: 0

Question: What about the “Adverse event, n: Rash” value [5] of the same molecule?
Answer: 2

Question: What about the “Adverse event, n: Diarrhea” value [6] of the same molecule?
Answer: 0

Question: What about the “Adverse event, n: Dysgeusia” value [6] of the same molecule?
Answer: 0

Question: And the “Adverse event, n: Epistaxis” value [6]?
Answer: 0

Question: And the “Adverse event, n: High cholesterol” value [6]?
Answer: 0

Question: What about the “Adverse event, n: Hyperglycemia” value [6] of the same molecule?
Answer: 0

Question: And the “Adverse event, n: Hypertriglyceridemia” value [6]?
Answer: 0

Question: And the “Adverse event, n: Hypokalemia” value [6]?
Answer: 0

Question: What about the “Adverse event, n: Interstitial lung disease” value [6] of the same molecule?
Answer: 0

Question: And the “Adverse event, n: Malaise” value [6]?
Answer: 0

Question: What about the “Adverse event, n: Mucositis oral” value [6] of the same molecule?
Answer: 0

Question: What about the “Adverse event, n: Neutrophil count decreased” value [6] of the same molecule?
Answer: 1

Question: What about the “Adverse event, n: Platelet decrease” value [6] of the same molecule?
Answer: 0

Question: What about the “Adverse event, n: Rash” value [6] of the same molecule?
Answer: 0

Question: And the “Adverse event, n: Diarrhea” value [7]?
Answer: 0

Question: And the “Adverse event, n: Dysgeusia” value [7]?
Answer: 0

Question: What about the “Adverse event, n: Epistaxis” value [7] of the same molecule?
Answer: 0

Question: And the “Adverse event, n: High cholesterol” value [7]?
Answer: 0

Question: And the “Adverse event, n: Hyperglycemia” value [7]?
Answer: 0

Question: What about the “Adverse event, n: Hypertriglyceridemia” value [7] of the same molecule?
Answer: 0

Question: What about the “Adverse event, n: Hypokalemia” value [7] of the same molecule?
Answer: 1

Question: And the “Adverse event, n: Interstitial lung disease” value [7]?
Answer: 0

Question: And the “Adverse event, n: Malaise” value [7]?
Answer: 0

Question: What about the “Adverse event, n: Mucositis oral” value [7] of the same molecule?
Answer: 0

Question: What about the “Adverse event, n: Neutrophil count decreased” value [7] of the same molecule?
Answer: 0

Question: And the “Adverse event, n: Platelet decrease” value [7]?
Answer: 0

Question: And the “Adverse event, n: Rash” value [7]?
Answer: 0

Question: And the “Adverse event, n: Diarrhea” value [8]?
Answer: 4

Question: And the “Adverse event, n: Dysgeusia” value [8]?
Answer: 3

Question: And the “Adverse event, n: Epistaxis” value [8]?
Answer: 4

Question: What about the “Adverse event, n: High cholesterol” value [8] of the same molecule?
Answer: 7

Question: What about the “Adverse event, n: Hyperglycemia” value [8] of the same molecule?
Answer: 3

Question: And the “Adverse event, n: Hypertriglyceridemia” value [8]?
Answer: 9

Question: And the “Adverse event, n: Hypokalemia” value [8]?
Answer: 6

Question: And the “Adverse event, n: Interstitial lung disease” value [8]?
Answer: 4

Question: And the “Adverse event, n: Malaise” value [8]?
Answer: 5

Question: And the “Adverse event, n: Mucositis oral” value [8]?
Answer: 11

Question: And the “Adverse event, n: Neutrophil count decreased” value [8]?
Answer: 6

Question: And the “Adverse event, n: Platelet decrease” value [8]?
Answer: 7

Question: And the “Adverse event, n: Rash” value [8]?
Answer: 10

Question: What about the “stomatitis, incidence, all grade” value (all patients, n = 18) of the same molecule?
Answer: 94%

Question: What about the “proportion of all patients who required a second dose reduction” value (from the starting dose of 10 mg (7/18)) of the same molecule?
Answer: 39%

Question: What about the “number of patients with dose-limiting toxicities (DLTs)” value (of 18 patients, during the 10 months of the study period) of the same molecule?
Answer: 13

Question: What about the “proportion of patients who required dose reduction owing to adverse drug reactions” value (starting dose of 5 mg (5/6)) of the same molecule?
Answer: 83%

Question: What about the “DLT while being treated with clarithromycin” value (three patients, clarithromycin 200 mg twice daily for 7 days (CYP3A4 inhibitor) during everolimus treatment) of the same molecule?
Answer: no DLT
